A word on the IC50: it is the concentration needed to halve the response being measured. For orientation: Kd means the concentration at which binding is half-saturated.

The subject of test [1] is Ca2+ uptake into mitochondria. The note with it: in vitro; read-out: IC50, block of Ca2+ uptake into mitochondria in vitro; cited from earlier work.
A further test has as its target mitochondria. The note with it: read-out: Kd, binding to mitochondria; cited from earlier work.
Test [2] deals with T1, mitochondrial calcium uniporter (MCU) (Homo sapiens, UniProt Q8NE86).
T1 construct: We measured mitochondrial Ca^2+ uptake using permeabilized HEK cells; endogenous in cells; host or cells: HEK293 cells, saponin-permeabilized
T1 sequence (Q8NE86 51-351): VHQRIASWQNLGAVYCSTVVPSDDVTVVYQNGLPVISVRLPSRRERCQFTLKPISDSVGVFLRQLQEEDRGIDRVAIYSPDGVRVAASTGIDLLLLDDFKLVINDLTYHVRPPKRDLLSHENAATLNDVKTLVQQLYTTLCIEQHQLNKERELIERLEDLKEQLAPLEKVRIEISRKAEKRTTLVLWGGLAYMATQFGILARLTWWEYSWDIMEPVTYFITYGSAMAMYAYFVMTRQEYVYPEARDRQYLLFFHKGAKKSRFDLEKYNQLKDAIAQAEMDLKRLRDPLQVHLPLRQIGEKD
T1 sequence (Q9H4I9 48-107 partner limits assumed): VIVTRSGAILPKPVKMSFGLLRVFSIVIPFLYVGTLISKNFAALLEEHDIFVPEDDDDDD
Nature of the test: Calcium green mitochondrial Ca2+ uptake assay in permeabilized HEK cells. The settings on record: Ru360 10 μM or DN-MCU adenovirus (FIG. 6). It counts as cell-based. As for the experimental part: (§1) SAN cells were placed in Tyrode's solution at 36±0.5° C. and were identified by their characteristic morphology (spindle or spider shape) and spontaneous activity. SAN cells were identified electrophysiologically by spontaneous action potentials with a slow depolarizing phase 4 and the hyperpolarization-activated current (If).^27 Spontaneous action potentials, If and ICa were recorded using the perforated (amphotericin B or β-escin in studies requiring dialysis of Ru360 and/or ATP) patch-clamp technique^28 on single SAN cells at 36±0.5° C. in Tyrode's solution. Intracellular Ca^2+ transients were recorded from single SAN cells using Fura-2 AM excited at 340 nm and 380 nm and emitted and 510 nm. Endogenous NADH from single SAN cells was measured by excitation at 350 nm and recording emitted light at 460 nm.^29 Mitochondrial Ca^2+ was measured at 535 nm from mt-pericam expressing SAN cells exited at 415 nm^20. Mitochondrial Ca^2+ entry was measured in cell membrane permeabilized cardiomyocytes isolated from DN-MCU transgenic, wild type mice and from HEK293 cells using Calcium green-5N^30.
We measured mitochondrial Ca^2+ uptake using permeabilized HEK cells as previously described^30,40. […] Fluorescence was measured using a Tecan plate reader. […] Fluorescence intensity was measured from 50,000 […]/well. […]

The subject of test [3] is CaV1 L-type Ca2+ current (ICa). Kind of test: ICa current recording in SAN cells. It counts as cell-based, mouse. The note with it: Ru360 dialysis. Here is the method:
as §1
Spontaneous action potentials (APs) and If were recorded using the perforated (amphotericin B or β-escin) patch-clamp technique^28 on single SAN cell at 36±0.5° C. in Tyrode's solution (0.5 mM BaCl2 was added to the bath solution when recording If^32). […]

For the substance (μ)[(HCO2)(NH3)4Ru]2OCl3) [Ru360], in test [1], the IC50 is 0.184 nM. For the same substance, the Kd at mitochondria was 0.34 nM. The “Mitochondrial Ca2+ entry” value in test [2] was “similarly effective at preventing”. The “ISO-induced ICa increases” value in test [3] is on record as “not impaired”.
